Marks after values point to notes of the source that are not given here.
Tests used:
[1] = test system: β-cells; experiment: STZ-mediated diabetes induction (β-cell depletion); assay type: in vivo, mouse; conditions: mice, STZ 200 mg/kg intraperitoneally, single dose
Excerpt: We reasoned that such cells might be capable of replacing lost β-cells in diabetic mice. […] A higher mortality rate was found among animals older than 4 weeks, as compared to younger mice. It should be noticed that these animals were already hyperglycemic and weakened prior to STZ injection due to a combined insulin insensitivity and β-cell failure to optimally respond to a glucose challenge (FIG. 24). […] Ten days post-injection, only few insulin-producing cells were detected (FIG. 7F-G). […]
We reasoned that the continuous β-cell neogenesis observed in double-transgenic animals might be able to rescue experimentally-induced diabetes. Therefore, the function of the newly formed β-cells was assessed in diabetic mice with more than 95% β-cell loss following STZ treatment. […] Also under these conditions, clusters of glucagon^+ cells were detected at one pole of the islets, adjacent to duct structures, such cells subsequently adopting a β-cell phenotype.
To assess the effects of glucagon on islet size, mice were injected intraperitoneally twice daily (every 12h) with 5 μg of glucagon and sacrificed after 3 weeks of treatment. […] Lastly, BrdU was injected intraperitoneally (200 μl of 100 μl/ml) and was detected by immunohistochemistry (Invitrogen).

[2] = test system: POE::Glucre β-cells; experiment: Arginine and liraglutide tolerance tests; assay type: in vivo, mouse; conditions: 10-week old POE::Glucre; arginine 5 mg intravenously; lower than in younger animals
[3] = test system: POE::Glucre pancreata; experiment: Real time RT-PCR of selected transcripts in pancreata of POE::Glucre mice supplemented with glucagon; assay type: in vivo, mouse; conditions: 6 week old POE::Glucre + glucagon for 3 weeks; WT/POE pancreata set at 100%
Procedure: (§1) To assess the effects of glucagon on islet size, mice were injected intraperitoneally twice daily (every 12h) with 5 μg of glucagon and sacrificed after 3 weeks of treatment. For STZ-mediated diabetes induction, a freshly prepared 50 mg/ml solution in 0.1 mol/l sodium citrate, pH 4.5 was injected intraperitoneally (200 mg/kg). Lentivirus production and injection were performed as described previously (Xu et al., 2008). Lastly, BrdU was injected intraperitoneally (200 μl of 100 μl/ml) and was detected by immunohistochemistry (Invitrogen).
RNA isolation (RNAeasy, Qiagen) and cDNA synthesis (Supercript choice system, Invitrogen) were performed according to the manufacturer's instructions. cDNA synthesis for analyses aiming to detect Pax4 transcripts was performed using a mixture of eight Pax4-derived (and β-actin-derived) antisense oligonucleotides instead of the provided oligo-dT primers (FIG. 13B).
Quantitative RT-PCR were carried out using the QuantiTect SYBR Green RT-PCR Kit (Qiagen) and validated primers (Qiagen) according to the manufacturer's instructions. The PCR reactions and detection were performed on a Mastercycler® ep realplex cycler using GAPDH and HPRT1 as internal controls for normalization purposes.
The expression of the indicated genes was assayed in pancreatic tissues of POE::Glucre, POE::Glucre supplemented with glucagon, and glucagon-receptor mutant (GluR-KO) mice using age-matched tissues of WT and POE pancreata as reference (values set at 100%). POE::Glucre, but also GluR-KO pancreata display increased contents of Ngn3 and Reg3b transcripts. Additionally, an augmentation in β-cell-specific transcripts is outlined in POE::Glucre, whereas the expression of the α-cell marker genes is reduced Importantly, concomitantly with a significant decrease in Ngn3 and Reg3b transcript contents, a reduction in insulin- and glucagon-producing cell numbers (and associated marker genes) is evidenced in POE::Glucre animals supplemented with glucagon. All values are statistically significant (P<0.05, n>2) versus POE/WT.

[4] = test system: POE::Glucre pancreata; experiment: Immunohistochemical cell counts and islet size in pancreata of mice supplemented with glucagon; assay type: in vivo, mouse
Procedure: We therefore hypothesized that the latter might be driven by the hypoglucagonemia resulting from the α- to β-cell conversion. To test this theory, we injected 3-week-old POE::Pdx1Cre, POE::Glucre, POE::Pax6cre, and control animals twice daily with glucagon during three weeks.
as §1
Tissues were fixed in 4% PFA overnight at 4° C., embedded in paraffin and 8-μm sections applied to slides. These sections were assayed as described previously (Collombat et al. 2003). In order to perform co-immunofluorescence, the GFP signal was bleached when necessary, as described (Collombat et al., 2007). The primary antibodies used were the following: mouse monoclonal anti-insulin, anti-glucagon ( 1/1000 —Sigma), anti-Ngn3 ( 1/2000—1F25A1B3, BCBC Antibody Core), anti-c-Myc ( 1/100 —Abcam); guinea pig anti-insulin, anti-glucagon ( 1/1000—Sigma); rabbit anti-somatostatin ( 1/600—Dako), anti-PP ( 1/200—Dako), anti-Nkx6.1 ( 1/3000), anti-Nkx2.2 ( 1/1000—kindly provided by T. Jessell), anti-Pax6 ( 1/500 Chemicon), anti-Pax4 ( 1/500), and anti-Arx ( 1/1000); chicken anti-β-galactosidase ( 1/500 Biozol); goat anti-Ngn3 ( 1/1000—kindly provided by M. Sander). The secondary antibodies ( 1/1000—Molecular Probes) used were: 594-alexa anti-mouse; 488-alexa anti-mouse; 594-alexa anti-rabbit; 488-alexa anti-rabbit; 594-alexa anti-guinea pig; 488-alexa anti-guinea pig. Pictures were processed using confocal microscopy. For quantification purpose, stained cells were counted manually on every tenth section and the count reported to the pancreatic area estimated in silico.
The counts in cells positive for the indicated genes are reported per square centimetre of pancreatic tissues of POE::Glucre, POE::Glucre supplemented with glucagon, and glucagon-receptor mutant (GluR-KO) mice using age-matched tissues of WT/POE pancreata as reference. It is worth noticing that, in animals ectopically expressing Pax4 in glucagon expression domains or in GluR-KO mice, Ngn3-producing cells reemerge (note for the latter that due to the bias introduced by the high background, this count should be considered as indicative). […] In the latter case, a concomitant decrease in BrdU-labelled proliferating cell numbers is highlighted (BrdU provided at 5 weeks of age, examination a week later). (n>2, **P<0.01, *P<0.05 using the POE/WT genotype as reference; ^##P<0.01, ^#P<0.05 using the POE::Glucre genotype as reference).

[5] = test system: isolated islets; experiment: Perifusion analysis of isolated islets (insulin release); assay type: cell-based, mouse; conditions: 20 mM glucose + glucagon
Excerpt: […] (2003). […] Obviously, a decrease in digestion time/collagenase concentrations would not have permitted proper islet isolation. We anyway perifused the islets and observed no difference in islet function of younger animals for all the genotypes analyzed. However, in older counterparts, we did detect a decrease in the glucose-stimulated insulin release, albeit not significant. It should be noticed that such a lack of significance might be attributed to the loss of oversized islets induced by experimental conditions.

[6] = test system: POE::Glucre animals; experiment: Insulin challenge (overall responsiveness to insulin); assay type: in vivo, mouse; conditions: older POE::Glucre animals; Actrapid insulin 0.75 mU/g subcutaneously
Procedure: Note that 600 mg of glucose per dl of blood correspond to the maximal value detectable by our glucose monitoring system. […] However, due to the experimental conditions used, we noticed a disaggregating of the islets (Table 7) and therefore turned to an in vivo approach: (C) To determine the overall responsiveness to insulin, an insulin challenge was performed in animals of the indicated genotypes and ages. […] (D-F) Aiming to also assay β-cell function, we treated POE::Glucre animals of the indicated genotypes and ages with two insulin secretagogues, arginine and liraglutide (a long-acting GLP-1 analog—Novo Nordisk—Denmark).
Animals of the indicated genotypes were injected subcutaneously with Actrapid insulin (0.75 mU/g—Novo Nordisk—Denmark), intravenously with arginine (5 mg—Sigma) or subcutaneously with liraglutide (200 micrograms per kg—Novo Nordisk—Denmark). Following insulin challenge, blood glucose levels were measured as described in the main manuscript. Next to arginine challenge, at each time point, one animal per genotype was sacrificed immediately for serum insulin level determination using RIA (Linco). Lastly, in the case of liraglutide, the latter was injected 30 min prior to glucose challenge. At each time point, three animals per genotype were sacrificed immediately for serum glucose and insulin level determination.

[7] = 6 week old POE::Glucre + glucagon

CN(N=O)C(=O)N[C@H]1C(O)O[C@H](CO)[C@@H](O)[C@@H]1O (mixture of isomers) [STZ, streptozotocin]
β-cell loss following STZ treatment [1]: more than 95%

N=C(N)NCCC[C@H](N)C(=O)O [arginine]
Insulin secretion after arginine challenge [2]: able to elicit an insulin secretion

glucagon
Arx transcript (real time RT-PCR) [3]: 15 ± 10%
Glucagon transcript (real time RT-PCR) [3]: 18 ± 9%
Insulin transcript (real time RT-PCR) [3]: 285 ± 52%
Ngn3 transcript (real time RT-PCR) [3]: 475 ± 81%
Nkx6.1 transcript (real time RT-PCR) [3]: 183 ± 20%
Pax4 transcript (real time RT-PCR) [3]: 555 ± 91%
Pdx1 transcript (real time RT-PCR) [3]: 279 ± 62%
Reg3b transcript (real time RT-PCR) [3]: 434 ± 63%
Islet size ([4]; 3-week-old POE::Pdx1Cre, POE::Glucre, POE::Pax6cre mice injected twice daily with glucagon during three weeks, vs controls): significant decrease in islet size
Glucagon-positive cell count [4, 7]: 6 ± 4**^# per square centimetre
Insulin-positive cell count [4, 7]: 394 ± 132**^## per square centimetre
BrdU (1 week) labelled cell count ([4]; 6 week old POE::Glucre + glucagon, BrdU at 5 weeks of age, examination a week later): 28 ± 7^# per square centimetre
Ngn3-positive cell count ([4]; 6 week old POE::Glucre + glucagon, count indicative (high background)): 38 ± 11^# per square centimetre
% of insulin released reported to the total insulin cell content/2 h ([5]; 3-week old Control islets): 8.9 ± 1.1%
% of insulin released reported to the total insulin cell content/2 h ([5]; 3-week old POE::Glucre islets): 10.6%
% of insulin released reported to the total insulin cell content/2 h ([5]; 12-week old Control islets): 9.5 ± 0.8%
% of insulin released reported to the total insulin cell content/2 h ([5]; 12-week old POE::Glucre islets): 6.6 ± 1.2%

insulin: Actrapid insulin, Novo Nordisk, Denmark
Glycemia after insulin challenge [6]: did not observe any significant modification of the glycemia
